In PMC10439133, “Biosynthesis of ansamitocin P-3 incurs stress on the producing strain Actinosynnema pretiosum at multiple targets” (Communications Biology, 2023) one finds Kd data, which are given here for 1 compound.

Assay [1] concerns the target T1, flavin-dependent thymidylate synthase (FDTS) (Actinosynnema pretiosum, UniProt A0A290ZCH3).
T1 construct: gene thyX; recombinant His-tagged, from pET30a in E. coli BL21(DE3)
T1 sequence (A0A290ZCH3 1-250): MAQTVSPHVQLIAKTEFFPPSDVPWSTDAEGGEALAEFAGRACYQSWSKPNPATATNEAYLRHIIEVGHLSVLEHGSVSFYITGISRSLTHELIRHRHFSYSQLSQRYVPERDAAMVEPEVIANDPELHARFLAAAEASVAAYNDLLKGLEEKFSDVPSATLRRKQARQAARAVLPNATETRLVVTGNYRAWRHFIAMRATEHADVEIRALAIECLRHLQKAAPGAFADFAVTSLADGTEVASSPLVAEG
The assay is described as follows: SPR (Biacore 8K, CM5 chip); also NADPH oxidase inhibition with KI =[…]. In kind it is binding. (In general: In SPR one partner is held on a chip, and binding of the other changes the refractive index at the surface.)

In assay [2] the target is T2, deoxythymidine diphosphate glucose-4,6-dehydratase (dTGD) (Actinosynnema pretiosum, UniProt A0A290ZDY1).
T2 construct: gene rfbB; recombinant His-tagged, from pET30a in E. coli BL21(DE3)
T2 sequence (A0A290ZDY1 1-330): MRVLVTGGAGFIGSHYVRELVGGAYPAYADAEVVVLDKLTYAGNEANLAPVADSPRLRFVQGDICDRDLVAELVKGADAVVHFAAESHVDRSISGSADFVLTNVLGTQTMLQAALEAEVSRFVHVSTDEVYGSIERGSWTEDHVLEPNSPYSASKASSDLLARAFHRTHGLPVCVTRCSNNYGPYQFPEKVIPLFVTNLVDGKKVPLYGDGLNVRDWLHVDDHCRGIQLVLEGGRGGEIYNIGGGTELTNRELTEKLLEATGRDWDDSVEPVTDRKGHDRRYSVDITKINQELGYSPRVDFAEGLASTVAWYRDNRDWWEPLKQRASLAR
The assay is described as follows: SPR (Biacore 8K, CM5 chip); also enzyme inhibition with KI =[…]. In kind it is binding.

As usually defined, the Kd is the free concentration of one partner at which half of the binding sites on the other are occupied at equilibrium, for simple one-to-one binding. The low end stands for higher affinity, the high end for lower affinity. Take `COc1cc2cc(c1Cl)N(C)C(=O)C[C@H](OC(=O)C(C)C)[C@]1(C)O[C@H]1[C@H](C)[C@@H]1C[C@@](O)(NC(=O)O1)[C@H](OC)/C=C/C=C(\C)C2` [AP-3, ansamitocin P-3]: the results for the Kd in assay [1] and in assay [2] were 66.5 µM and 360 µM, respectively.
